Experimental findings from ChEMBL document CHEMBL1150407, “High-throughput evaluation of relative cell permeability between peptoids and peptides” (Bioorg Med Chem, 2008) are described below.

Each structure is given as a SMILES string.

The target in the assay is T1, Glucocorticoid receptor (Homo sapiens, UniProt P04150).
T1 sequence (P04150 whole entry): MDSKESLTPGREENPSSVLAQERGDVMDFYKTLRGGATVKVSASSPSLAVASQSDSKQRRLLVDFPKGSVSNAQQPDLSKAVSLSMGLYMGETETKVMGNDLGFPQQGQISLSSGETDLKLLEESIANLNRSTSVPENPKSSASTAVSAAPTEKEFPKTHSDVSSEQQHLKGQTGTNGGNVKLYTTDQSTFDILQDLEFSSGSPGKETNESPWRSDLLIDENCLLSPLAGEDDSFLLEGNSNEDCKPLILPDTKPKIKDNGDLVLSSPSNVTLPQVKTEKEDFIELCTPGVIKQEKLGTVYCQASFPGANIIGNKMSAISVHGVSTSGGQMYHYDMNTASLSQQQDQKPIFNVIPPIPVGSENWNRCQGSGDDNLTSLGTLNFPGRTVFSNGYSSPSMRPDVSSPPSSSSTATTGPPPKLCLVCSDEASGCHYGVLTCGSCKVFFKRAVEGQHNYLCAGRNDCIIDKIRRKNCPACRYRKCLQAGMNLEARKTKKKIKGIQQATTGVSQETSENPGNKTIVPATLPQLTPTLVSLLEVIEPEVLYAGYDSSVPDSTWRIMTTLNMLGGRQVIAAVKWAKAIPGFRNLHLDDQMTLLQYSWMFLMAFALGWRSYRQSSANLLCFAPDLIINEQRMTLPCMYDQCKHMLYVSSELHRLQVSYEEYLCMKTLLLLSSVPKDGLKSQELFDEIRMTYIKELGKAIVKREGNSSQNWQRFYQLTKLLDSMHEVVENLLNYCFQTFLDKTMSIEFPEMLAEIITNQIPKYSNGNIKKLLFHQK
Nature of the assay: Inhibition of glucocorticoid receptor.

The compound `C[C@@H]1C[C@H]2[C@@H]3CCC4=CC(=O)C=C[C@]4(C)[C@@]3(F)[C@@H](O)C[C@]2(C)[C@@]1(O)C(N)=O` [OXDEX] had an IC50 of 600 nM.

With `C[C@@H]1C[C@H]2[C@@H]3CCC4=CC(=O)C=C[C@]4(C)[C@@]3(F)[C@@H](O)C[C@]2(C)[C@@]1(O)C(=O)CSCCC(N)=O`, the IC50 came out at 36 nM.
